Reference: BindingDB's records for PubMed 9694973 (Alcon Laboratories, 1998)
pKi: −log10 of the molar value. Several values for one entry are separate records, joined by “and”; a condition that tells them apart may be missing. Equal values may be shown once.

Legend:
[1] = target: T1, Prostaglandin E2 receptor EP3 subtype (Bos taurus, UniProt P34979)
T1 sequence (P34979 whole entry): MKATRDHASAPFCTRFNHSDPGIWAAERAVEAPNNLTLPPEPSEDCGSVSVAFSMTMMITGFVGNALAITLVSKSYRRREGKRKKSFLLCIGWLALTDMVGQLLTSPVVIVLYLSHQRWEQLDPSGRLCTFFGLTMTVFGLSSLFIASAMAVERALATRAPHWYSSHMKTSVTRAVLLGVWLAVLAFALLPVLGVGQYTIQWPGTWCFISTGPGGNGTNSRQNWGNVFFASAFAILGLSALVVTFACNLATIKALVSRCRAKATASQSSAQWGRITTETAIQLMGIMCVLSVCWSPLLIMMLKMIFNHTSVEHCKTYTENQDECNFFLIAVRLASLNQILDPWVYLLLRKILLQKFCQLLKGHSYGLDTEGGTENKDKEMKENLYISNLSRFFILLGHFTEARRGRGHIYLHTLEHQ

[2] = target: Prostaglandin F2-alpha receptor (Bos taurus, UniProt P37289)
Prostaglandin F2-alpha receptor, sequence (P37289 whole entry): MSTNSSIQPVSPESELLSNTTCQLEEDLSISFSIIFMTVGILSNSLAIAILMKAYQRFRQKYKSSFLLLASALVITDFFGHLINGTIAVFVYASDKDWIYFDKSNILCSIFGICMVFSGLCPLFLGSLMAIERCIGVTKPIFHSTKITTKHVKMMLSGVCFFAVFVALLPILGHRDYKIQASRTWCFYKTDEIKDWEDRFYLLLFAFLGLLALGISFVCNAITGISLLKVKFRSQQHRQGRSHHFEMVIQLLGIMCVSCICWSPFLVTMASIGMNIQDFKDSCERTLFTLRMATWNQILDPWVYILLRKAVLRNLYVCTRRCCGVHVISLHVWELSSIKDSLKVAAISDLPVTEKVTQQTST

| pKi [1] | pKi [2] | SMILES |
| --- | --- | --- |
| 8.70 and 8.40 | < 5.00 | CCCCC[C@@H](O)/C=C/[C@H]1[C@H](O)CC(=O)[C@@H]1CCCCCCC(=O)O |
| 5.31 and 5.27 | < 5.00 | CCCCC[C@H](O)/C=C/[C@@H]1[C@H]2C/C(=C\CCCC(=O)O)C[C@H]2C[C@H]1O |
| 7.80 and 8.15 | 5.85 | O=C(O)CCC/C=C\C[C@H]1C(=O)C[C@@H](O)[C@@H]1/C=C/[C@@H](O)CCc1ccccc1 [17-PHENYL TRINOR PROSTAGLANDIN E2] |
| 7.43 and 7.62 |  | CCCCC[C@H](O)/C=C/C1[C@H](O)C[C@H](O)[C@@H]1C/C=C\CCCC(=O)O (stereo partly drawn) [(Z)-7-[(1R,3R,5S)-3,5-Dihydroxy-2-((E)-(S)-3-hydroxy-oct-1-enyl)-cyclopentyl]-hept-5-enoic acid] |
| 5.50 and 5.46 | 7.00 | O=C(O)CCCC=CCC1C(O)CC(O)C1C=CC(O)COc1cccc(C(F)(F)F)c1 (configuration not stated) [CAS_40666-16-8] |
| 5.80 and 5.95 | 5.60 | CCCCCC(O)CC=C1C(=O)C=CC1CC=CCCCC(=O)O (configuration not stated) [CAS_41598-07-6] |
| 7.68 and 7.96 | 5.60 | CS(=O)(=O)NC(=O)CCCC=CCC1C(=O)CC(O)C1C=CC(O)COc1ccccc1 (configuration not stated) [CAS_60325-46-4] |
| < 5.00 | 5.23 | CCCCCCCC(=O)CCC1C(O)CC(O)C1CC=CCCCC(=O)OC(C)C (configuration not stated) [CAS_151671] |
| 7.05 and 7.04 |  | O=C(O)CCC/C=C\C[C@@H]1[C@@H](/C=C/[C@@H](O)COc2cccc(Cl)c2)[C@H](O)C[C@@H]1O [CLOPROSTENOL] |
| 8.40 and 8.52 | 5.47 | CCCCC[C@H](O)/C=C/[C@H]1[C@H](O)CC(=O)[C@@H]1C/C=C\CCCC(=O)O [DINOPROSTONE] |
| < 5.00 | 5.38 | CC(C)OC(=O)CCC/C=C/C[C@@H]1[C@@H](CC[C@@H](O)CCc2ccccc2)[C@H](O)C[C@@H]1O [LATANOPROST (PHXA41)] |
| < 5.00 and 5.10 | 7.01 | O=C(O)CCCC=CC[C@@H]1[C@@H](CC[C@@H](O)CCc2ccccc2)[C@H](O)C[C@@H]1O [NSC_170548] |
|  | 7.66 | O=C(O)CCC/C=C\C[C@@H]1[C@@H](/C=C/[C@@H](O)COc2ccccc2)[C@H](O)C[C@@H]1O [PGF2Alpha,16-Phenoxy] |
| < 5.00 | 5.05 | CCCCC[C@H](O)/C=C/C1[C@@H](C/C=C\CCCC(=O)O)[C@H]2CO[C@@H]1C2 (some centres not stated) [U46619] |

The remaining lines, values behind:

| SMILES | pKi [1] | pKi [2] |
| --- | --- | --- |
| CC#CCC(C)[C@H](O)/C=C/[C@@H]1[C@H]2C/C(=C/CCCC(=O)O)C[C@H]2C[C@H]1O (some centres not stated) | 6.58 |  |
| CCCC1([C@@H](O)C/C=C/C2[C@H](O)CC(=O)[C@@H]2CCCCCCC(=O)OC)CCC1 (some centres not stated) [Butaprost (Methyl Ester)] | < 5.00 |  |
| O=C(O)CCCCCCc1c(O)n(Cc2ccccc2)c(=O)n1NCC(O)C1CCCCC1 (configuration not stated) [CAS_122021] | < 5.00 | < 5.00 |
| CC(C)OC(=O)CCC/C=C\C[C@@H]1[C@@H](/C=C/[C@@H](O)CCc2ccccc2)[C@H](O)C[C@@H]1O [CAS_130209-76-6] | 6.41 | 7.23 |
| COC(=O)CCC=CCCC1C(=O)CC(O)C1C=CCC(C)(O)C=CC1=CCCC1 (configuration not stated) [CAS_132045] | 7.54 |  |
| CC(=O)NNC(=O)N1Cc2ccccc2Oc2ccc(Cl)cc21 [CAS_4336830] | 5.52 and < 5.00 |  |
| CC1CCCCC1C(O)C=CC1C(O)CC(Cl)C1CC=CCOCC(=O)O (configuration not stated) [CAS_5311208] | 5.06 | < 5.00 |
| CCCCC(C)(O)CC=CC1C(O)CC(=O)C1CCCCCCC(=O)OC (configuration not stated) [MISOPROSTOL (Methyl Ester)] | 7.60 and 7.27 |  |
| O=NN1CSCSC1 [NSC_130741] | < 5.00 | < 5.00 |
| COC(=O)CCC=C=CCC1C(=O)CC(O)C1C=CC(O)COc1ccccc1 (configuration not stated) [NSC_5282207] | 7.92 and 7.60 | 6.00 |
| O=C(CCC=CCCC1C(=O)CC(O)C1OCC(O)COc1ccccc1)Oc1ccc(NC(=O)c2ccccc2)cc1 (configuration not stated) [NSC_5311224] | 8.10 and 7.96 | < 5.00 |
